Earlier results, collected in US6426407B1, “Residues for binding third strands to complementary nucleic acid duplexes of any base pair sequence” (Codon Pharm., priority 1995, dated 2002).

Key:
[1] = tested on: homopolymer GC duplexes, homopolymer AT duplexes, and mixed base-pair duplexes with alternating AG in the center strand
Wherever third strand base complementary to center strand purine is given: key: a '+' means the bases are complementary or correspondent; a '−' means they are not complementary or not correspondent.

Row | Structure (SMILES) | third strand base complementary to center strand purine (center strand purine A) | third strand base complementary to center strand purine (center strand purine G) | triplex formation [1]
1 | Nc1cc[nH]c(=O)n1 [C, cytosine] | − | + | 
2 | OC[C@H]1O[C@@H](n2cnc3c(O)ncnc32)[C@H](O)[C@@H]1O [I, inosine] | + | + | forms triplexes
3 | Nc1nc2nc[nH]c2c(=O)[nH]1 [G, guanine] | − | + | 
4 | Nc1ncnc2nc[nH]c12 [A, adenine] | + | − | 
